Reference: patent US20260242324A1, “FATTY ACID MIMETICS AS MODULATORS OF GPR40 AND/OR GPR120” (Trustees of Dartmouth College, priority 2023, published 2026)
Like-named read-outs stand apart in the source and are kept apart here.

Tests used:
GPR40 = biological target: T1, GPR40 (Homo sapiens, UniProt O14842); assay: β-arrestin assay (PathHunter) for GPR40 agonism; format: cell-based; conditions: for activity at GPR40 in heat map of % maximal efficacy: single dose 15 μM, FIG. 9A, compared to oleic acid at 15 μM; for GPR40 agonism / selectivity for GPR40 over GPR120 / EC50: dose-response; for GPR40 agonism / selectivity for GPR40 over GPR120: FIG. 9B; for potency at GPR40 relative to oleic acid: multiple of oleic acid potency; for EC50: PathHunter β-arrestin
T1 construct: beta-galactosidase enzyme fragment for EFC (ProLink-type tag); expressed in transfected cells
T1 sequence (O14842 whole entry, the tested form may be a part): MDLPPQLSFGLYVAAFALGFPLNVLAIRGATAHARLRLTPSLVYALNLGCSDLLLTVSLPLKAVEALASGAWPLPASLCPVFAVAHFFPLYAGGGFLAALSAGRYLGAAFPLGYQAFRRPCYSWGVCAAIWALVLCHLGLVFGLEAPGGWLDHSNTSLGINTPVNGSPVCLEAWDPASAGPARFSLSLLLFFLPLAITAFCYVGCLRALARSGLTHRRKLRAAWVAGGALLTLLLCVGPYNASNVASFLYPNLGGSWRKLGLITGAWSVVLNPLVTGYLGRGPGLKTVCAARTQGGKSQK
Experimental: (§1) In this example, compounds from Example 1 were assessed as functional ligands (agonists) to two oleic acid receptors (GPR40 and GPR120). […]

GPR120 [1] = biological target: T2, GPR120 (Homo sapiens, UniProt Q5NUL3); assay: β-arrestin assay (PathHunter) for GPR120 agonism; format: cell-based; design: beta-galactosidase enzyme fragment for EFC (ProLink-type tag); expressed in transfected cells; conditions: for EC50: PathHunter β-arrestin, dose-response; for agonist efficacy at GPR120: relative to oleic acid and GW9508; for activity at GPR120 in heat map of % maximal efficacy: single dose 15 μM, FIG. 9A, compared to oleic acid at 15 μM
T2 sequence (Q5NUL3 1-361): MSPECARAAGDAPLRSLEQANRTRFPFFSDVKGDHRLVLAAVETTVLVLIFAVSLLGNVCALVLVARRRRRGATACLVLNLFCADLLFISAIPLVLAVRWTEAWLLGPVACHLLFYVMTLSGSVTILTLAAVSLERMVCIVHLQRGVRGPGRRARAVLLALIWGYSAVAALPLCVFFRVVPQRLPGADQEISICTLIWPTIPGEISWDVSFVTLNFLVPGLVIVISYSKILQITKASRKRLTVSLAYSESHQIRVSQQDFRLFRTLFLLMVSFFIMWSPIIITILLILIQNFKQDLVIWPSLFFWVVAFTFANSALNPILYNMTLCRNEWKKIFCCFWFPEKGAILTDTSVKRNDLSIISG
Experimental: as §1

CHO-mGPR40 cells = biological target: T3, CHO-mGPR40 cells (Mus musculus, UniProt Q76JU9); conditions: reported; read-out: EC50, stimulatory activity on CHO-mGPR40 cells; cited from earlier work
T3 construct: host or cells: CHO cells transfected with mGPR40
T3 sequence (Q76JU9 whole entry): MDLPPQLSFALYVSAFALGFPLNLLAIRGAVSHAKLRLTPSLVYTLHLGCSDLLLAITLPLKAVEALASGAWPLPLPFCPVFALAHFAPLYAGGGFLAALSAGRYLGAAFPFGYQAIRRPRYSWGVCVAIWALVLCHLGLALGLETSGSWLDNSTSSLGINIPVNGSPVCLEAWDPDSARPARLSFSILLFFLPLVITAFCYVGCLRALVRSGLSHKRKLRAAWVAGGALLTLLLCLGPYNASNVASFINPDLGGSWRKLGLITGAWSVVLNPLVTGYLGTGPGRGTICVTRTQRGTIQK

MIN6 cells = conditions: reported, concentrations as low as; cited from earlier work
GPR120 [2] = biological target: T2, GPR120; conditions: read-out: EC50 as agonist of GPR120; reported; cited from earlier work

Structure (SMILES)	activity at GPR40 in heat map of % maximal efficacy (GPR40)	selectivity for GPR40 over GPR120 (GPR40)	potency at GPR40 relative to oleic acid (GPR40)	activity against GPR120 (GPR120 [1])	EC50 (GPR120 [1])	activity at GPR120 in heat map of % maximal efficacy (GPR120 [1])	GPR40 agonism (GPR40)	agonist efficacy at GPR120 (GPR120 [1])	other results
CCCCCCCCCC/C=C(/C)C/C(C)=C/[C@H](C)CC(=O)O [Compound 1-A]	enriched for activity at GPR40								
CCCCCCCCC[C@@H](C)/C=C(/C)C/C(C)=C/[C@H](C)CC(=O)O [Compound 1-C]	enriched for activity at GPR40	substantial selectivity over GPR120					exceptionally selective and potent agonists of GPR40		
CCCCCCCCC[C@H](C)/C=C(/C)C/C(C)=C/[C@H](C)CC(=O)O [Compound 1-E]	enriched for activity at GPR40	substantial selectivity over GPR120	twelve times greater than oleic acid				exceptionally selective and potent agonists of GPR40		
CCCCCCCCC[C@H](C)/C=C(/C)C/C(C)=C/[C@@H](C)CC(=O)O [Compound 1-F]		substantial selectivity over GPR120					exceptionally selective and potent agonists of GPR40		
O=C(O)CCc1ccc(NCc2cccc(Oc3ccccc3)c2)cc1 [GW9508, reference compound]									EC50 (GPR40): 1 µM
CCCCCCCC/C=C\CCCCCCCC(=O)O [oleic acid, reference compound]				agonist activity against GPR120	15 µM				EC50 (CHO-mGPR40 cells): 2 µM; EC50 (GPR40): 37 µM; right shift of reporter assay results (GPR40; versus reported values, receptor not specified): ~ 20 fold; concentration inducing insulin secretion in MIN6 cells (MIN6 cells): ≥ 1 µM; EC50 (GPR120 [2]): 12 µM

Now from value to compound, other results behind:

activity at GPR40 in heat map of % maximal efficacy (GPR40)	selectivity for GPR40 over GPR120 (GPR40)	potency at GPR40 relative to oleic acid (GPR40)	activity against GPR120 (GPR120 [1])	EC50 (GPR120 [1])	activity at GPR120 in heat map of % maximal efficacy (GPR120 [1])	Structure (SMILES)	GPR40 agonism (GPR40)	agonist efficacy at GPR120 (GPR120 [1])	other results
		approximately 6 fold	agonist activity against GPR120	1 to 7 µM	enriched for activity at GPR120	CCCCCCC[C@@H](C)/C=C(/C)C/C(C)=C/[C@H](C)CCCC(=O)O [Compound 2-C]	effective agonists of GPR40	agonist efficacy at a fraction of what is observed with oleic acid and GW9508	
		approximately 6 fold		1 to 7 µM	enriched for activity at GPR120	CCCCCCC[C@@H](C)/C=C(/C)C/C(C)=C/[C@@H](C)CCCC(=O)O [Compound 2-D]	effective agonists of GPR40	agonist efficacy at a fraction of what is observed with oleic acid and GW9508	
		approximately 6 fold		1 to 7 µM	enriched for activity at GPR120	CCCCCCC[C@H](C)/C=C(/C)C/C(C)=C/[C@H](C)CCCC(=O)O [Compound 2-E]	effective agonists of GPR40	agonist efficacy at a fraction of what is observed with oleic acid and GW9508	selectivity for GPR120 (GPR120 [1]; GPR120 over GPR40): 5 fold; enhanced potency (GPR120 [1]; versus oleic acid or GW9508): 7-15 fold
			inactive against GPR120			CCC[C@@H](C)/C=C(/C)C/C(C)=C/[C@H](C)CCCCCCCC(=O)O [Compound 4-C]			
